According to patent US8663616B2, “Enzymatic peracid generation for use in oral care products” (E I du Pont de Nemours and Company, priority 2010, dated 2014):

Legend:
[1] = Peracetic acid vs hydrogen peroxide bleaching of coffee/tea stained bovine enamel (whiteness index); settings: for ΔWI: 0 to 61 min; for Whiteness Index 0 min: before exposure
Text: This example describes the use of peracetic acid to achieve a bleaching effect on model stained enamel surfaces. Bovine enamel incisors were obtained from SE Dental (Baton Rouge, La.). Teeth were sectioned and cut into enamel slabs approximately 7 mm on each side using a DREMEL® rotary saw (Robert Bosch Power Tool Corporation; Chicago, Ill.) with a diamond blade. The enamel slabs were cleaned and lightly polished to remove surface debris. The enamel was pretreated with a mixture of coffee and tea for 1-5 days in order to stain to a color similar to human stained teeth.
Each enamel block was hydrated in water for at least 1 hr prior to use. Color measurements for the substrate were obtained prior to exposure to test solutions. Solutions of peracetic acid were prepared from a 32% stock in 500 mM sodium phosphate buffer, pH 7.2. A solution of 2.5% H2O2 was also prepared in the same buffer. Multiple enamel blocks were exposed to each solution for 1 min followed by additional exposures of 5 min, 10 min, 15 min and 30 min. For each treatment, a fresh solution of peracetic acid and hydrogen peroxide was prepared from the stock solutions. After each treatment the enamel blocks were rinsed with water and measured with a Konica-Minolta 2600d spectrophotometer.
(§1) Whiteness index (WI) is defined by the International Commission on Illumination (CIE) and described in ASTM method E313-05 and calculated for D65/10 incident light as: WI=Y+800*(0.3138−x)+1700*(0.3310−y) Where Y, x, and y are the luminance factor and the chromaticity coordinates respectively of the enamel substrate.

[2] = One-step bleaching of stained bovine enamel with perhydrolase system (Example 12)
Text: as §1
(§2) The purpose of this example is to show the tooth bleaching effect of enzymatic generated peracetic acid in a one-step application and compare to the performance achieved with chemically derived peracetic acid. Two methods were developed to use a perhydrolytic enzyme (CE-7 perhydrolase) system to achieve the target level of tooth bleaching. The first method (referred to herein as the “one-step approach”) comprises combining different amounts of at least one CE-7 perhydrolase with triacetin (an example of a suitable ester substrate) and hydrogen peroxide to generate peracetic acid using model stained enamel substrates. Bovine enamel incisors were prepared as indicated in Example 1. Stained bovine enamel blocks were hydrated in water at least 1 hr prior to use to stabilize the color of the substrate. The color for each enamel block was measured after hydration prior to the start of the experiment. Three enamel samples were treated for each solution type. The solutions used were a buffer only control, 2.5% H2O2, 1% peracetic acid, a perhydrolase composition including 10 μM EZ-1 (C277S; SEQ ID NO: 424), 100 mM triacetin and 250 mM H2O2 and a no enzyme control of 100 mM triacetin and 250 mM H2O2. All solutions were prepared in 500 mM sodium phosphate buffer, pH 7.2. The high buffer strength was necessary to maintain the 1% peracetic acid solution at neutral pH. All solutions were freshly prepared for each treatment point. The enzyme-triacetin-H2O2 combination and triacetin-H2O2 combination was mixed immediately before enamel exposure. After each treatment step, each enamel block was rinsed with water and a color measurement was obtained. A total treatment time of 61 min was used with durations of exposure of 1 min, 5 min, 10 min, 15 min and 30 min. The concentration of peracetic acid in solution after the 1 min, 10 min and 30 min treatments was evaluated by colorimetric detection of ABTS oxidation.

[3] = Bleaching of coffee-tea stained bovine enamel with EZ-1 and various ester substrates (Example 15)
Description: The optimal conditions used for the generation of peracetic acid with each substrate were derived from the studies in Example 14 and are listed below as follows:
Bovine enamel incisors were prepared as indicated in Example 1. The stained enamel blocks were placed in a 24 well plate with the dentin side facing down and hydrated overnight in phosphate buffer, pH 7.2. Prior to treatment, a color measurement of each tooth was performed using a Konica-Minolta 2600d spectrophotometer and whiteness index was calculated as specified in Example 1.
Each enzyme solution was prepared in a 1.5-mL microfuge tube (Eppendorf, #2243102-1) and 1 mL of the solution was immediately transferred to the 24 well plate containing the pre-hydrated teeth. The control samples consisted of 100 mM phosphate buffer, pH 7.2 and 9% H2O2 in 100 mM citrate/phosphate buffer, pH 5.3. The teeth were incubated at room temperature for 30 minutes, removed, rinsed with 100 mM phosphate, pH 7.2 and a color measurement was taken. The teeth were placed back into the 24 well plate at which time fresh enzyme solutions were prepared and added to each well. This process was repeated for a total of 3 whitening treatments; 30 min per treatment (Table 22).

[4] = Peracetic acid in treatment solution by ABTS absorbance (Example 12); assay type: biochemical; settings: 1:100 dilution into ABTS reagent
Text: as §2
Determination of the peracetic acid (PAA) concentration in the reaction mixtures by a colorimetric method was performed according to the method described by Dinu et. al. (supra). A reagent solution of 1 mM 2,2′-azino-bis(3-ethylbenzothiazoline)-6-sulfonate (ABTS), 50 μM potassium iodide in 125 mM potassium citrate buffer at pH 5.0 was prepared. […] The solution was analyzed for absorbance at 405 nm using a Microplate reader. A comparison of relative amounts of peracetic acid in solution was determined by comparing absorbance values directly.

Whiteness Index 0 min ([2]; before treatment, 2.5% H2O2, 100 mM triacetin/250 mM H2O2, 1% PAA, 10 μM EZ-1/100 mM triacetin/250 mM H2O2, pH 7.2): −149.3
ΔWI ([2]; one-step, 0 to 61 min): 46.2
Whiteness Index 1 min ([2]; one-step, cumulative treatment 1 min): −146.3
Whiteness Index 6 min ([2]; one-step, cumulative treatment 6 min): −142.5
Whiteness Index 16 min ([2]; one-step, cumulative treatment 16 min): −134.7
Whiteness Index 31 min ([2]; one-step, cumulative treatment 31 min): −125.2
Whiteness Index 61 min ([2]; one-step, cumulative treatment 61 min): −103.1
SMILES: OO [Enzyme H2O2, hydrogen peroxide]
ΔWI ([1]; Table 1, 2.5% H2O2 or 0.5% PAA): 42.6
Whiteness Index 1 min ([1]; Table 1, 2.5% H2O2 or 0.5% PAA, cumulative exposure 1 min): −127.2
Whiteness Index 6 min ([1]; Table 1, 2.5% H2O2 or 0.5% PAA, cumulative exposure 6 min): −124.5
Whiteness Index 16 min ([1]; Table 1, 2.5% H2O2 or 0.5% PAA, cumulative exposure 16 min): −118.4
Whiteness Index 31 min ([1]; Table 1, 2.5% H2O2 or 0.5% PAA, cumulative exposure 31 min): −103.6
Whiteness Index 61 min ([1]; Table 1, 2.5% H2O2 or 0.5% PAA, cumulative exposure 61 min): −84.9
Whiteness Index 0 min ([1]; Table 1, 2.5% H2O2 or 0.5% PAA, 500 mM sodium phosphate pH 7.2): −127.5
Whiteness Index 1 min ([1]; Table 2, 2.5% H2O2): −92.6
Whiteness Index 6 min ([1]; Table 2, 2.5% H2O2): −86.4
Whiteness Index 16 min ([1]; Table 2, 2.5% H2O2): −79.5
Whiteness Index 31 min ([1]; Table 2, 2.5% H2O2): −68.3
Whiteness Index 61 min ([1]; Table 2, 2.5% H2O2): −56.4
ΔWI ([1]; Table 2, 2.5% H2O2): 37.4
Whiteness Index 0 min ([1]; Table 2, 2.5% H2O2): −93.8
Whiteness Index Treatment 1 ([3]; after 1 x 30 min treatment): −129.6
Whiteness Index Treatment 2 ([3]; after 2 x 30 min treatments): −117.6
Whiteness Index Treatment 3 ([3]; after 3 x 30 min treatments): −115.2
Whiteness Index Treatment 0 ([3]; before treatment, 40 ppm EZ-1, 100 mM substrate, H2O2 100 mM (TA), 360 mM (PGDA, SOC), 60 mM (GPA), pH 7.2, control 9% H2O2 pH 5.3 without enzyme): −167.6
ΔWI ([3]; treatment 0 to treatment 3): 52.4
Absorbance 405 nm, 1 min ([4]; peracetic acid at end of 1 min treatment): 0.056
Absorbance 405 nm, 10 min ([4]; peracetic acid at end of 10 min treatment): 0.060
Absorbance 405 nm, 30 min ([4]; peracetic acid at end of 30 min treatment): 0.054
